# Patent US12419951B2, “Preparation of zinc risedronate micro/nano adjuvant and use thereof as vaccine adjuvant” (priority 2019, dated 2025)
# System: hepatitis B therapeutic protein
# Settings: same risedronate content as Zn-risedronic acid (1/0.125) group
# Method: Using the experimental procedure described in Example 4, mice were immunized with zinc risedronate adjuvant in combination with hepatitis B therapeutic protein by intramuscular injection, and serum antibody titers were detected. The specific method was as follows:
# Experimental animals: Balb/C mice, 6-8 weeks, 5 mice/group, female.
# Immunization protocol: antigen 1.2 μg/mouse, adjuvant and hepatitis B therapeutic protein were mixed at a volume ratio of 1:1 to form a vaccine, and then injected intramuscularly to mice, 150 μL per mouse, and 75 μL on each hind leg. The immunization was performed on the 0th, 2nd, 3rd, 4th, 5th and 6th week, 1.2 μg of antigen per mouse, blood samples were collected from eye socket after the 6th week, and ELISA was used to determine the levels of specific antibodies in serum.
compound,measurement,value
"O=P(O)(O)C(O)(Cc1cccnc1)P(=O)(O)O [sodium risedronate, Risedronate sodium]",difference in humoral immune response compared with aluminum adjuvant,no statistically significant difference
same,humoral immune stimulation effect,a certain humoral immune stimulation effect
